Key:
[1] = biological target: T1, RORγ ligand binding domain (Homo sapiens, UniProt P51449); test: RORγ radioligand competition binding assay (SPA); conditions: competition with tritiated 2-(4-(ethylsulfonyl)phenyl)-N-(4-(2-(methoxymethyl)phenyl)thiophen-2-yl)acetamide (25 nM), hRORγ LBD
In short: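 SPA competition on E. coli-expressed N-6×HN-Avi-GST-TCS-hRORγ LBD (S258-K518), 4 nM on YOx glutathione beads, in 20 mM Tris, 150 mM NaCl, 10% glycerol, 0.25% CHAPS, 1 mM TCEP. Compound pre-incubation 1 h RT, then 25 nM tritiated tracer for 16 h. IC50 normalized to vehicle/reference controls; Ki = IC50/(1+[L]/Kd), Kd 17 nmol/L.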

human TH17 cells = test: Inhibition of IL-17 release from human TH17 cells; format: cell-based; conditions: 96 h; isolated human TH17 cells cultured 4 days, IL-17A in supernatant by HTRF; read-out: pIC50 IL-17 release (converted)
Source text: Inhibition of IL-17 Release from Human TH17 Cells
This test is designed to screen compounds for their inhibitory effect on the release of IL-17 from isolated and cultured human TH17 cells.
Peripheral blood mononuclear cells (PBMC) were isolated from heparin treated human whole blood from healthy donors by density gradient centrifugation. TH17 cells (CD4+CXCR3−CCR6+) were enriched using a human TH17 Cell Enrichment Kit (Stemcell Technologies) according to the manufacturer's protocol. The isolated TH17 cells were activated with aCD3aCD28 beads (MACS Miltenyi) and cultured in X-Vivo15 medium (Lonza) supplemented with L-glutamine, β-mercaptoethanol and a cytokine cocktail consisting of; IL-2, IL-23, IL-1β, IL-6, TGF-β. Cells were seeded at 8000 cells/well in a 384-plate (Corning, #3707) in the presence of compounds or DMSO and cultured for 4 days (37° C., 5% CO2). On day 4 supernatants were collected and IL-17A was measured using a Human IL-17 HTRF Assay kit (Cisbio Bioassays) according to the manufacturer's protocol. The IC50 values for the tested compounds was calculated using Genedata Screener® software (Genedata) using the following calculation method; Compound % effect=100*[(X−min)/(max−min)], where X represents the normalized value for the compound based on the Min (DMSO) and Max (compound 3-(1,3-benzodioxol-5-yl)-1-(3,5-dimethylpiperidin-1-yl)-3-(2-hydroxy-4,6-dimethoxyphenyl)propan-1-one at 10 μM, described in J. R. Hu et al. ACS Med. Chem. Lett. 2013, 4, 79-84) inhibition controls. Results

[2] = biological target: T1, RORγ ligand binding domain; test: RORγ co-factor recruitment assay (FRET); format: biochemical; design: made in house; host or cells: E. coli BL21DE3 Star; conditions: inhibition of recruitment of SRC-1 peptide (NCOA1_677-700) to hRORγ LBD, HTRF read-out
In short: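 Inverse-agonist TR-FRET measuring biotinylated SRC-1 peptide (NCOA1 677-700, 160 nM in pre-mix) recruitment to E. coli-expressed biotinylated HN-Avi-MBP-TCS-hRORγ LBD (258-518; 100 nM in pre-mix), with Eu-streptavidin and streptavidin-APC, in MOPS pH 7.4 buffer, 1 h at rt. 665/612 nm ratio normalised to vehicle and reference control; IC50 from curve fit.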

Row | IC50 [1] [nM] | IC50 (human TH17 cells) [nM] | IC50 [2] [nM] | SMILES
1 | 794 | 251 | 158 | CC(=O)N1Cc2cc(S(C)(=O)=O)ccc2C1C(=O)Nc1ccc(C(CC(=O)NC(C)(C)C)(C(F)(F)F)C(F)(F)F)cc1 (stereo not drawn) [Example 43, 2-Acetyl-N-{4-[4-(tert-butylamino)-1,1,1-trifluoro-4-oxo-2-(trifluoromethyl)butan-2-yl]phenyl}-5-(methylsulfonyl)-2,3-dihydro-1H-isoindole-1-carboxamide]
2 | 794 | 3160 | 200 | CC(=O)NCCC(c1ccc(NC(=O)C2c3ccc(S(C)(=O)=O)cc3CN2C(C)=O)cc1)(C(F)(F)F)C(F)(F)F (stereo not drawn) [Example 45, 2-Acetyl-N-{4-[4-(acetylamino)-1,1,1-trifluoro-2-(trifluoromethyl)butan-2-yl]phenyl}-5-(methylsulfonyl)-2,3-dihydro-1H-isoindole-1-carboxamide]

From patent US11034654B2, “2,3-dihydroisoindole-1-carboxamides useful as ROR-gamma modulators” (AstraZeneca AB, priority 2017, dated 2021)
